Assay results reported in US20240368125A1, “NOVEL PYRAZINYL-TRIAZOLE COMPOUNDS AS PESTICIDES” (Bayer Aktiengesellschaft, priority 2021, published 2024).

How the values were obtained:
Assay type in all cases: in vivo
[1] = system: adult engorged female ticks (Rhipicephalus microplus); experiment: Rhipicephalus (Boophilus) microplus injection test; settings: 4 μg/tick, after 7 days
Protocol: Rhipicephalus (Boophilus) Microplus—Injection Test
(§1) Solvent: Dimethyl Sulfoxide
To produce a suitable preparation of active compound, 10 mg of active compound are dissolved in 0.5 mL solvent, and the concentrate is diluted with solvent to the desired concentration.
Five adult engorged female ticks (Rhipicephalus microplus) are injected with 1 μL compound solution into the abdomen. The ticks are transferred into replica plates and incubated in a climate chamber.
After 7 days egg deposition of fertile eggs is monitored. Eggs where fertility is not visible are stored in a climate chamber till hatching after about 42 days. An efficacy of 100% means all eggs are infertile; 0% means all eggs are fertile.

[2] = system: adult cat fleas (Ctenocephalides felis); experiment: Ctenocephalides felis in-vitro contact test, adult cat flea; settings: Ctenocephalides felis; 1 μg/cm^2 (=100 g/ha), after 48 hours; read-out: efficacy (fleas dead or moribund)
[3] = system: adult unfed cat fleas (Ctenocephalides felis); experiment: Ctenocephalides felis oral test; settings: 48 h, 100 ppm in citrated cattle blood, after 2 days
Protocol: Ctenocephalides felis—Oral Test
as §1
To produce a suitable preparation of active compound, 10 mg of active compound are dissolved in 0.5 mL solvent, and the concentrate is diluted with citrated cattle blood to the desired concentration.
Approximately 20 adult unfed cat fleas (Ctenocephalides felis) are placed in a flea chamber whose top and bottom is covered with gauze. A chamber whose bottom is sealed with parafilm, is filled with the blood-compound solution and placed on top of the flea chamber, so that the fleas can suck the blood. The blood chamber is heated to 37° C. whereas the flea chamber is kept at room temperature.
After 2 days mortality in % is determined. 100% means all the fleas have been killed; 0% means none of the fleas have been killed.

[4] = system: brown planthopper (Nilaparvata lugens); experiment: Nilaparvata lugens spray test; settings: Nilaparvata lugens, in Oryza sativa, 96 h
Method in brief: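 Compound dissolved in acetone/dimethylformamide and diluted in water with 1000 ppm alkylarylpolyglycol ether emulsifier. Rice plants sprayed at the test concentration, then infested with brown planthopper; % mortality read after 4 days (100% = all killed, 0% = none).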

[5] = system: adult mosquitoes Aedes aegypti strain MONHEIM; experiment: Aedes aegypti test (AEDSAE surface treatment & contact assay); settings: 24 hours after contact, read-out: efficacy (mortality); for mortality at 4 mg/m2: surface concentration 4 mg/m^2, 30 min exposure; for mortality at 20 mg/m2: surface concentration 20 mg/m^2, 30 min exposure
Protocol: Aedes aegypti Test (AEDSAE Surface Treatment & Contact Assay
(§2) Solvent: Aceton+2000 ppm rapeseed oil methyl ester (RME)
(§3) In order to produce a sufficient, active ingredient containing solution it is necessary to solve the test compound in the solvent-mix (acetone at 2 mg/ml/RME 2000 ppm). This solution is pipetted onto a glazed tile and after evaporation of the acetone, adult mosquitoes of the species Aedes aegypti strain MONHEIM are placed onto the dried surface. The exposure time is 30 minutes. Mortality in percent (%) is determined 24 hours after contact of the insects to the treated surface. 100% mortality means that all tested insects are dead, whereas 0% means that no insect died.

[6] = system: adult mosquitoes Anopheles funestus strain FUMOZ-R; experiment: Anopheles funestus test (ANPHFU surface treatment & contact assay); settings: 24 hours after contact, read-out: efficacy (mortality); for mortality at 4 mg/m2: surface concentration 4 mg/m^2, 30 min exposure; for mortality at 20 mg/m2: surface concentration 20 mg/m^2, 30 min exposure
Protocol: Anopheles funestus Test (ANPHFU Surface Treatment & Contact Assay
as §2
as §3, with “Anopheles funestus” for “Aedes aegypti”, “FUMOZ-R (Hunt et al., Med. Vet. Entomol. 2005 September; 19(3): 271-275)” for “MONHEIM”

[7] = system: adult mosquitoes Culex quinquefasciatus strain P00; experiment: Culex quinquefasciatus test (CULXFA surface treatment & contact assay); settings: 24 hours after contact, read-out: efficacy (mortality); for mortality at 20 mg/m2: surface concentration 20 mg/m^2, 30 min exposure; for mortality at 4 mg/m2: surface concentration 4 mg/m^2, 30 min exposure
Protocol: Culex quinquefasciatus Test (CULXFA Surface Treatment & Contact Assay
as §2
as §3, with “Culex quinquefasciatus” for “Aedes aegypti”, “P00” for “MONHEIM”

Compound | efficacy (infertile eggs) [1] [%] | pest or weed control at 1 µg/cm2 [2] [%] | mortality at 100 ppm [3] [%] | mortality at 500 g/ha [4] [%] | mortality at 4 mg/m2 [5] [%] | mortality at 20 mg/m2 [5] [%] | mortality at 4 mg/m2 [6] [%] | mortality at 20 mg/m2 [6] [%] | mortality at 20 mg/m2 [7] [%] | mortality at 4 mg/m2 [7] [%]
C[C@H](NC(=O)c1cc(OC(F)(F)F)cc(C2CC2)c1)c1ncnn1-c1cnc(C(=O)N(C)C)cn1 [Example I-002] | 100 | 100 | 100 | 90 | 80 to 100 | 80 to 100 | 85 to 100 | 85 to 100 | 80 to 100 | 
C[C@H](NC(=O)c1cc(C(F)(F)F)cc(C(F)(F)F)c1)c1ncnn1-c1cnc(C(=O)N(C)C2CC2)cn1 [Example I-007] | 100 | 100 | 100 | 100 | 80 to 100 | 80 to 100 |  |  | 80 to 100 | 80 to 100
C[C@H](NC(=O)c1cc(C(F)(F)F)cc(C(F)(F)F)c1)c1ncnn1-c1cnc(C(=O)N(C)CC2CC2)cn1 [Example I-008] | 100 | 100 | 100 | 100 | 80 to 100 | 80 to 100 |  |  | 80 to 100 | 80 to 100
CNC(=O)c1cnc(-n2ncnc2[C@H](C)NC(=O)c2cc(C(F)(F)F)cc(C(F)(F)F)c2)cn1 [Example I-009] | 100 | 100 | 100 | 100 | 80 to 100 | 80 to 100 | 85 to 100 | 85 to 100 | 80 to 100 | 80 to 100
CNC(=O)c1cnc(-n2ncnc2[C@H](C)NC(=O)c2cc(OC(F)(F)F)cc(C3CC3)c2)cn1 [Example I-021] |  | 100 |  | 100 | 80 to 100 | 80 to 100 |  |  | 80 to 100 | 80 to 100
